Assay results taken from patent US20120122727A1, “IN VITRO METHOD FOR PREDICTING WHETHER A COMPOUND IS GENOTOXIC IN VIVO” (priority 2009, published 2012).

System: primary mouse hepatocytes
Test: Gene expression (Affymetrix Mouse Genome 430 2.0) in primary mouse hepatocytes, true vs false GTX, 24 h and 48 h
Settings: log2, corrected for vehicle control

## CN(C)N=O [DMN, Dimethylnitrosamine]
24 h average
  Gene expression data AF000969 (Cadps2): −1.039
  Gene expression data AF022072 (Grb10): −1.913
  Gene expression data AF065917 (Lif): 1.804
  Gene expression data AF204959 (Cyp3a25 /// LOC622249): −0.2993
  Gene expression data AF297615 (Ggta1): 3.2188
  Gene expression data AI594683 (Dmn): 3.164
  Gene expression data AI596632 (Ptprg /// LOC632664): −1.9
  Gene expression data AI987929 (Ndrg1): −0.9838
  Gene expression data AK004419 (Fbxl17): −1.22
  Gene expression data AK005731 (1700007K13Rik): 5.486
  Gene expression data AK007766 (1810044A24Rik): −0.8706
  Gene expression data AK007854 (1810053B23Rik): 2.173
  Gene expression data AK009736 (Gpr137b /// LOC664862 /// LOC673335): −0.8367
  Gene expression data AK010447 (Smyd3): −1.0358
  Gene expression data AK014608 (4632434l11Rik): 1.756
  Gene expression data AK019979 (2610528E23Rik): −1.324
  Gene expression data AV095209 (Mthfd1l): −1.007
  Gene expression data AV141095 (1110033M05Rik): −1.375
  Gene expression data AV173571 (1700106N22Rik): −1.0106
  Gene expression data AV219418 (Ldhb): 2.743
  Gene expression data AV223474 (Zdhhc14): −0.9067
  Gene expression data AV298304 (Homez): 1.8715
  Gene expression data AV327248 (Zfp365 /// LOC674611): 4.114
  Gene expression data AV377066 (9130221J18Rik): 0.9605
  Gene expression data AW240761 (Tbc1d5): −1.191
  Gene expression data AW543460 (Pard3): −1.4802
  Gene expression data AW543723: 1.95
  Gene expression data AW986246 (Maoa): −0.372
  Gene expression data BB027848 (4732466D17Rik): 1.126
  Gene expression data BB043558 (9230114K14Rik): 2.407
  Gene expression data BB275142 (AW456874): 1.902
  Gene expression data BB308836 (Ppm1l): −0.9881
  Gene expression data BB318221 (Zdhhc14): −1.041
  Gene expression data BB463610 (4632434l11Rik): 1.9965
  Gene expression data BB526605 (Mipol1): −1.5816
  Gene expression data BB770528 (Rai2): 2.8
  Gene expression data BB821363 (Scfd2): −1.143
  Gene expression data BC004827 (Psat1): −1.518
  Gene expression data BC008626 (Icam1): 2.035
  Gene expression data BC010462 (BC010462): 0.7519
  Gene expression data BC012247 (Dcxr): 1.6567
  Gene expression data BC012260 (Psmf1): 1.0548
  Gene expression data BC015270 (Hist2h3c2): 0.9816
  Gene expression data BC016073 (Cdkal1): −1.243
  Gene expression data BC016265 (Ube2e2): −1.287
  Gene expression data BC019882 (Acaa1b): 2.057
  Gene expression data BC025501 (Aaas): 1.6386
  Gene expression data BC025837 (Sbk1): 0.9087
  Gene expression data BC025915 (Cova1): −0.9502
  Gene expression data BC026422 (Tgm1): 2.22
  Gene expression data BF719766 (Thyn1): 1.824
  Gene expression data BG065754 (Ccng1): 0.9587
  Gene expression data BG066903 (Kif16b): −0.8682
  Gene expression data BG069873 (Gnb1l): 2.2987
  Gene expression data BG070887 (Gtdc1): −1.112
  Gene expression data BG076151 (Ppm1d): 1.946
  Gene expression data BG261907 (Large): −1.3871
  Gene expression data BI651416 (Cdc42bpg): 1.7218
  Gene expression data BI660702 (Ell3): 2.514
  Gene expression data BM198879 (Ercc5): 1.2634
  Gene expression data BM230508 (A030007D23Rik): 2.304
  Gene expression data NM_007987 (Fas): 2.421
  Gene expression data NM_008522 (Ltf): 3.616
  Gene expression data NM_008576 (Abcc1): −0.9295
  Gene expression data NM_011176 (St14): 1.574
  Gene expression data NM_011316 (Saa4): 2.1585
  Gene expression data NM_012006 (Acot1): 2.033
  Gene expression data NM_013866 (Zfp385): 2.361
  Gene expression data NM_018770 (Igsf4a): −0.8412
  Gene expression data NM_021451 (Pmaip1): 3.698
  Gene expression data NM_025770 (Atg10): −0.5113
  Gene expression data NM_028803 (Gbe1): −1.103
  Gene expression data NM_030697 (Ankrd47): 3.211
  Gene expression data NM_053168 (Trim11): 1.0583
  Gene expression data NM_134188 (Acot2): −0.5001
  Gene expression data Y15910 (Diap2): −1.636
48 h
  Gene expression AA561726 average: −0.3534
  Gene expression AF000969 average: −1.114
  Gene expression AF022072 average: −1.2797
  Gene expression AF033112 average: 1.817
  Gene expression AF055573 average: −1.913
  Gene expression AF069954 average: 1.631
  Gene expression AF297615 average: 3.153
  Gene expression AF335325 average: 1.6857
  Gene expression AI594683 average: 3.7761
  Gene expression AI747296 average: −0.4333
  Gene expression AK005731 average: 4.617
  Gene expression AK007854 average: 0.8396
  Gene expression AK010447 average: −0.8634
  Gene expression AK010738 average: 1.343
  Gene expression AK014608 average: 1.391
